Legend:
[1] = tested on: Septoria tritici; test: Septoria tritici on wheat, epoxiconazole with compound E (Example 9); assay type: in vivo
Method: (§1) Wheat plants were inoculated with the fungus Septoria tritici. Four days after inoculation the plants were sprayed with a diluted suspension concentrate formulation of the fungicide epoxiconazole at rates of 3, 10, 30 and 100 mg of the fungicide per liter of spray solution, using a laboratory track sprayer which delivered the spray at a rate of 200 liters per hectare. Spray tests were also carried out with a diluted suspension concentrate additionally comprising the carbonate compound E (see Table 7) added to the spray solution at a rate of 0.1% v/v, based on the quantity of spray liquor. The leaves of the plants were assessed visually 12 days after the spray application and the damage was expressed as the percentage of the leaf area infected. Each spray test was replicated four times across the four application rates.
(§2) The results shown in Table 14 below are mean averages over the four rates of epoxiconazole and the four replicates, and are compared to the efficacy of epoxiconazole in the absence of an adjuvant, and epoxiconazole in the presence of oleyl ethoxylate 20EO butyl end capped adjuvant used as a standard adjuvant for comparative purposes (at 0.1% by volume).

[2] = tested on: Setaria viridis, Chenopodium album, Abutilon theophrasti and Ipomea hederacea; test: Glasshouse post-emergence spray test, fomesafen with adjuvant (Example 2), mean across species; assay type: in vivo; details: fomesafen 60 or 120 g/ha, carbonate 0.2% v/v or Turbocharge 0.5% v/v; 14 and 21 days; Tukey HSD letter
Method: (§3) Setaria viridis, Chenopodium album, Abutilon theophrasti and Ipomea hederacea seeds were sown into standard soil in pots and cultivated under controlled conditions in a glasshouse (at 24/18° C. day/night; 16 hours light; 65% humidity).
(§4) When the plants were at the vegetative stage of 2-4 leaves they were sprayed with an aqueous spray solution containing the herbicide fomesafen and 0.2% v/v of one of the carbonates B92-P-Carbonate, B92-B-Carbonate and B96-P-Carbonate (see Table 1).
(§5) The spray solution was applied with a cabinet tracksprayer with a flat fan nozzle (Teejet 11002VS) and an application volume of 200 liter/ha (at 2 bar). Fomesafen was applied at either 60 or 120 grams of pesticide per hectare.
(§6) The test plants were then grown on, in a glasshouse under controlled conditions (at 24/18° C. day/night; 16 hours light; 65% humidity) and watered twice a day. After 14 and 21 days the test was evaluated for general crop injury (100% equals total damage to a plant; 0% equals no damage to a plant).
(§7) The results shown in Table 4 below are mean averages over the two rates of fomesafen, three replicates and the two assessment timings, and are compared to the efficacy of fomesafen in the absence of an adjuvant, and fomesafen in the presence of the commercially available tank-mix adjuvant, Turbocharge®, which was used at an application rate of 0.5% by volume of the spray tank.

[3] = tested on: Chenopodium album; test: Glasshouse post-emergence spray test, fomesafen with adjuvant (Example 2); assay type: in vivo; details: fomesafen 60 or 120 g/ha, carbonate 0.2% v/v or Turbocharge 0.5% v/v; mean over two rates, three replicates, 14 and 21 days
Method: as §3, §4, §5, §6, §7

[4] = tested on: Abutilon theophrasti; test: as above; assay type: in vivo; details: fomesafen 60 or 120 g/ha, carbonate 0.2% v/v or Turbocharge 0.5% v/v; mean over two rates, three replicates, 14 and 21 days
Method: as §3, §4, §5, §6, §7

[5] = tested on: Setaria viridis; test: as above; assay type: in vivo; details: fomesafen 60 or 120 g/ha, carbonate 0.2% v/v or Turbocharge 0.5% v/v; mean over two rates, three replicates, 14 and 21 days
Method: as §3, §4, §5, §6, §7

[6] = tested on: COMBEN; test: as above; assay type: in vivo, Ipomea hederacea; details: fomesafen 60 or 120 g/ha, carbonate 0.2% v/v or Turbocharge 0.5% v/v; mean over two rates, three replicates, 14 and 21 days
[7] = tested on: Chenopodium album; test: Glasshouse post-emergence spray test, nicosulfuron with adjuvant (Example 1); assay type: in vivo; details: nicosulfuron 30 or 60 g/ha, adjuvant 0.2% by volume; mean over two rates, three replicates, 17 and 21 days
Method: (§8) Setaria viridis, Chenopodium album, Abutilon theophrasti and Digitaria sanguinalis seeds were sown into standard soil in pots and cultivated under controlled conditions in a glasshouse (at 24/18° C. day/night; 16 hours light; 65% humidity).
(§9) When the plants were at the vegetative stage of 3-4 leaves they were sprayed with an aqueous spray solution containing the herbicide nicosulfuron and 0.2% v/v of one of the carbonates, B92-P-Carbonate, B92-B-Carbonate and B96-P-Carbonate (see Table 1).
(§10) Each spray solution was applied with a cabinet tracksprayer with a flat fan nozzle (Teejet 11002VS) and an application volume of 200 liter/ha (at 2 bar). Nicosulfuron was applied at either 30 or 60 grams of pesticide per hectare.
(§11) The test plants were then grown on, in a glasshouse under controlled conditions (at 24/18° C. day/night; 16 hours light; 65% humidity) and watered twice a day. After 17 and 21 days the test was evaluated for general crop injury (100% equals total damage to a plant; 0% equals no damage to a plant).
(§12) The results shown in Table 3 below are mean averages over the two rates of nicosulfuron, three replicates and the two assessment timings, and are compared to the efficacy of nicosulfuron in the absence of an adjuvant and nicosulfuron in the presence of the commercially available tank-mix adjuvant, Atplus411F® (at 0.2% by volume).

[8] = tested on: Abutilon theophrasti; test: as above; assay type: in vivo; details: nicosulfuron 30 or 60 g/ha, adjuvant 0.2% by volume; mean over two rates, three replicates, 17 and 21 days
Method: as §8, §9, §10, §11, §12

[9] = tested on: Digitaria sanguinalis; test: as above; assay type: in vivo; details: nicosulfuron 30 or 60 g/ha, adjuvant 0.2% by volume; mean over two rates, three replicates, 17 and 21 days
Method: as §8, §9, §10, §11, §12

[10] = tested on: Setaria viridis; test: as above; assay type: in vivo; details: nicosulfuron 30 or 60 g/ha, adjuvant 0.2% by volume; mean over two rates, three replicates, 17 and 21 days
Method: as §8, §9, §10, §11, §12

[11] = tested on: Setaria viridis, Chenopodium album, Abutilon theophrasti and Digitaria sanguinalis; test: Glasshouse post-emergence spray test, nicosulfuron with adjuvant (Example 1), mean across species; assay type: in vivo; details: nicosulfuron 30 or 60 g/ha, adjuvant 0.2% by volume; 17 and 21 days; Tukey HSD letter
Method: as §8, §9, §10, §11, §12

[12] = tested on: Setaria viridis, Chenopodium album, Abutilon theophrasti and Digitaria sanguinalis; test: Glasshouse spray test, nicosulfuron with carbonates A-E (Example 5), mean over four plant species; assay type: in vivo; details: for Mean % Phytotoxicity: Atplus 411F 0.5% by volume, 22 days, mean over rates, replicates, four species; for Adjuvant effect on efficacy of nicosulfuron (in words): 0.2% v/v carbonate with nicosulfuron, Tables 8 and 9
Method: as §8
When the plants were at the vegetative stage of 3-4 leaves they were sprayed with an aqueous spray solution containing the herbicide nicosulfuron and 0.2% v/v of one of the carbonates A, B, C, D and E (see Table 7).
Each spray solution was applied with a cabinet tracksprayer with a flat fan nozzle (Teejet 11002VS) and an application volume of 200 liter/ha (at 2 bar). Nicosulfuron was applied at either 15 or 60 grams of pesticide per hectare.
as §6, with “22” for “14 and 21”, “injury or phytotoxicity” for “injury”
as §12, with “8” for “3”, “nicosulfuron, the” for “nicosulfuron,”, “four plant species,” for “two assessment timings,”, “0.5%” for “0.2%”

[13] = tested on: Brachiaria plantaginea, Digitaria sanguinalis, Commelina benghalensis and Polygonum convulvulus; test: Glasshouse spray test, mesotrione with carbonates A-D (Example 6), mean over four plant species; assay type: in vivo; details: 0.2% v/v carbonate with mesotrione, Table 10
Method: Brachiaria plantaginea, Digitaria sanguinalis, Commelina benghalensis and Polygonum convulvulus seeds were sown into standard soil in pots and cultivated under controlled conditions in a glasshouse (at 24/18° C. day/night; 16 hours light; 65% humidity).
When the plants were at the vegetative stage of 2-4 leaves they were sprayed with an aqueous spray solution containing the herbicide mesotrione and 0.2% v/v of one of the carbonates A, B, C and D (see Table 7).
The spray solution was applied with a cabinet tracksprayer with a flat fan nozzle (Teejet 11002VS) and an application volume of 200 liter/ha (at 2 bar). Mesotrione was applied at either 30 or 60 grams of pesticide per hectare.
as §6, with “25” for “14 and 21”, “injury or phytotoxicity” for “injury”
The results shown in Table 10 below are mean averages over the two rates of mesotrione, the three replicates and the four plant species and are compared to the efficacy of mesotrione in the absence of an adjuvant, and mesotrione in the presence of the commercially available tank-mix adjuvant, Tween 20 ®+Rhodasurf DA/630-E® (combined in a 2:1 ratio) at 0.5% by volume.

[14] = tested on: Avena fatua, Lolium perenne, Setaria viridis and Alopecurus myosuroides; test: Glasshouse spray test, pinoxaden with carbonates A-E (Example 7), mean over four plant species; assay type: in vivo; details: 0.2% v/v carbonate with pinoxaden, Tables 11 and 12
Method: Avena fatua, Lolium perenne, Setaria viridis and Alopecurus myosuroides seeds were sown into standard soil in pots and cultivated under controlled conditions in a glasshouse (at 20/16° C. day/night; 15 hours light; 65% humidity).
When the plants were at the vegetative stage of 2-3 leaves they were sprayed with an aqueous spray solution containing the herbicide pinoxaden and 0.2% v/v of one of the carbonates A, B, C, D and E (see Table 7).
The spray solution was applied with a cabinet tracksprayer with a flat fan nozzle (Teejet 11002VS) and an application volume of 200 liter/ha (at 2 bar). Pinoxaden was applied at either 7.5 or 15 grams of pesticide per hectare.
as §6, with “on.” for “on,”, “22” for “14 and 21”, “injury or phytotoxicity” for “injury”
The results shown in Table 11 below are mean averages over the two rates of pinoxaden, the three replicates and the four plant species, and are compared to the efficacy of pinoxaden in the absence of an adjuvant, and pinoxaden in the presence of tris(2-ethylhexyl)phosphate, used as a standard adjuvant for comparative purposes (at 0.2% by […] volume).

[15] = tested on: Septoria tritici; test: Septoria tritici on wheat, isopyrazam with compound E (Example 8); assay type: in vivo; details: 0.1% v/v compound E with isopyrazam, Table 13
Method: as §1, with “isopyrazam” for “epoxiconazole”
as §2, with “13” for “14”, “isopyrazam” for “epoxiconazole”

Fc1ccc([C@]2(Cn3cncn3)O[C@H]2c2ccccc2Cl)cc1 (racemic) [Epoxiconazole]
Mean % infection ([1]; wheat leaf area infected 12 days after spray, epoxiconazole 3, 10, 30 and 100 mg/l, adjuvant 0.1% by volume, mean over four rates, four replicates): 40.0%

CS(=O)(=O)NC(=O)c1cc(Oc2ccc(C(F)(F)F)cc2Cl)ccc1[N+](=O)[O-] [Fomesafen]
Mean percentage kill, Mean across species [2]: 29.0 C % | Mean percentage kill CHEAL [3]: 58.3% | Mean percentage kill ABUTH [4]: 23.3% | Mean percentage kill SETVI [5]: 19.2% | Mean percentage kill COMBEN [6]: 15.0%

COc1cc(OC)nc(NC(=O)NS(=O)(=O)c2ncccc2C(=O)N(C)C)n1 [Nicosulfuron]
Mean percentage kill CHEAL [7]: 36.7% | Mean percentage kill ABUTH [8]: 48.3% | Mean percentage kill DIGSA [9]: 31.7% | Mean percentage kill SETVI [10]: 79.2% | Mean percentage kill, Mean across species [11]: 49.0 B % | Mean % Phytotoxicity ([12]; Table 8: nicosulfuron 15 or 60 g/ha, compounds A-D 0.2% by volume): 36.46% | Mean % Phytotoxicity ([12]; Table 9: nicosulfuron 15 or 60 g/ha, compound E 0.2% by volume): 28.3%

CCOC(=O)OCC(COC(=O)OCC)OC(=O)OCC [compound A, Glycerol-(CO3-ethyl)3]
Adjuvant effect on efficacy of mesotrione (in words) [13]: particularly effective at increasing the efficacy of mesotrione compositions | Adjuvant effect on efficacy of nicosulfuron (in words) [12]: increase the efficacy of nicosulfuron compositions

CCCCC(CC)COC(=O)OCC(COC(=O)OCC(CC)CCCC)OC(=O)OCC(CC)CCCC (stereo not drawn) [compound B, Glycerol-(CO3-2-ethylhexy1)3]
Adjuvant effect on efficacy of pinoxaden (in words) [14]: most effective at increasing the efficacy of the pinoxaden composition | Adjuvant effect on efficacy of mesotrione (in words) [13]: particularly effective at increasing the efficacy of mesotrione compositions | Adjuvant effect on efficacy of nicosulfuron (in words) [12]: increase the efficacy of nicosulfuron compositions

Glycerol-(6EO-CO3-2- ethylhexyl)3 [compound C]
Adjuvant effect on efficacy of nicosulfuron (in words) [12]: particularly effective as adjuvants for nicosulfuron

Glycerol-(6EO-CO3- phenyl)3 [compound D]
Adjuvant effect on efficacy of nicosulfuron (in words) [12]: particularly effective as adjuvants for nicosulfuron

Oleyl 10EO-(CO3-2- ethylhexyl) [compound E]
Effect on infection by S. tritici versus epoxiconazole without adjuvant (in words) ([1]; 0.1% v/v compound E with epoxiconazole, Table 14): significant reduction in the percentage of infection by S. tritici | Adjuvant effect on efficacy of pinoxaden (in words) [14]: effective as an adjuvant for pinoxaden | Effect on infection by S. tritici versus isopyrazam without adjuvant (in words) [15]: significant reduction in the percentage of infection by S. tritici | Adjuvant effect on efficacy of nicosulfuron (in words) [12]: particularly effective adjuvant for nicosulfuron

Reference: patent US9456599B2, “Adjuvants” (SYNGENTA LIMITED, priority 2012, dated 2016)
